11 compounds from US20070060566A1, “Benzazepine derivatives as histamine h3 antagonists” (priority 2003, published 2007) can be followed below.

Some results are limits rather than exact numbers.

The target of this assay is T1, human histamine H3 receptor (Homo sapiens, UniProt Q9Y5N1).
T1 construct: expressed in transfected cells; host or cells: CHO K1 cells carrying the pSwitch regulatory plasmid, transfected with pGeneH3, induced with mifepristone; clone 3H3
The assay can be described thus: Histamine H3 functional antagonist assay ([35S]GTPγS SPA on membranes). In kind it is biochemical. The note with it: membranes of CHO K1 cells expressing human histamine H3; histamine 0.3 μM; read-out: antagonism (pKb) (converted). An excerpt:
A membrane preparation containing histamine H3 receptors may be prepared in accordance with the following procedures:
(i) Generation of Histamine H3 Cell Line
DNA encoding the human histamine H3 gene (Huvar, A. et al. (1999) Mol. Pharmacol. 55(6), 1101-1107) was cloned into a holding vector, pCDNA3.1 TOPO (InVitrogen) and its cDNA was isolated from this vector by restriction digestion of plasmid DNA with the enzymes BamH1 and Not-1 and ligated into the inducible expression vector pGene (InVitrogen) digested with the same enzymes. The GeneSwitch™ system (a system where in transgene expression is switched off in the absence of an inducer and switched on in the presence of an inducer) was performed as described in U.S. Pat. Nos. 5,364,791; 5,874,534; and 5,935,934. Ligated DNA was transformed into competent DH5α E. coli host bacterial cells and plated onto Luria Broth (LB) agar containing Zeocin™ (an antibiotic which allows the selection of cells expressing the sh ble gene which is present on pGene and pSwitch) at 50 μg ml^−1. Colonies containing the re-ligated plasmid were identified by restriction analysis. DNA for transfection into mammalian cells was prepared from 250 ml cultures of the host bacterium containing the pGeneH3 plasmid and isolated using a DNA preparation kit (Qiagen Midi-Prep) as per manufacturers guidelines (Qiagen).
CHO K1 cells previously transfected with the pSwitch regulatory plasmid (InVitrogen) were seeded at 2×10e6 cells per T75 flask in Complete Medium, containing Hams F12 (GIBCOBRL, Life Technologies) medium supplemented with 10% v/v dialysed foetal bovine serum, L-glutamine, and hygromycin (100 μg ml^−1), 24 hours prior to use. Plasmid DNA was transfected into the cells using Lipofectamine plus according to the manufacturers guidelines (InVitrogen). 48 hours post transfection cells were placed into complete medium supplemented with 500 μg ml^−1 Zeocin™.
10-14 days post selection 10 nM Mifepristone (InVitrogen), was added to the culture medium to induce the expression of the receptor. 18 hours post induction cells were detached from the flask using ethylenediamine tetra-acetic acid (EDTA; 1:5000; InVitrogen), following several washes with phosphate buffered saline pH 7.4 and resuspended in Sorting Medium containing Minimum Essential Medium (MEM), without phenol red, and supplemented with Earles salts and 3% Foetal Clone II (Hyclone). Approximately 1×10e7 cells were examined for receptor expression by staining with a rabbit polyclonal antibody, 4a, raised against the N-terminal domain of the histamine H3 receptor, incubated on ice for 60 minutes, followed by two washes in sorting medium. Receptor bound antibody was detected by incubation of the cells for 60 minutes on ice with a goat anti rabbit antibody, conjugated with Alexa 488 fluorescence marker (Molecular Probes). Following two further washes with Sorting Medium, cells were filtered through a 50 μm Filcon™ (BD Biosciences) and then analysed on a FACS Vantage SE Flow Cytometer fitted with an Automatic Cell Deposition Unit. Control cells were non-induced cells treated in a similar manner. Positively stained cells were sorted as single cells into 96-well plates, containing Complete Medium containing 500 μg ml^−1 Zeocin™ and allowed to expand before reanalysis for receptor expression via antibody and ligand binding studies. One clone, 3H3, was selected for membrane preparation.
(ii) Membrane Preparation from Cultured Cells
All steps of the protocol are carried out at 4° C. and with pre-cooled reagents. The cell pellet is resuspended in 10 volumes of buffer A2 containing 50 mM N-2-hydroxyethylpiperazine-N′-2-ethanesulfonic acid (HEPES) (pH 7.40) supplemented with 10e-4M leupeptin (acetyl-leucyl-leucyl-arginal; Sigma L2884), 25 μg/ml bacitracin (Sigma B0125), 1 mM ethylenediamine tetra-acetic acid (EDTA), 1 mM phenylmethylsulfonyl fluoride (PMSF) and 2×10e-6M pepstain A (Sigma). […]
For orientation: Binding of GTPγS marks nucleotide exchange on a G protein.

T1 sequence (Q9Y5N1 whole entry): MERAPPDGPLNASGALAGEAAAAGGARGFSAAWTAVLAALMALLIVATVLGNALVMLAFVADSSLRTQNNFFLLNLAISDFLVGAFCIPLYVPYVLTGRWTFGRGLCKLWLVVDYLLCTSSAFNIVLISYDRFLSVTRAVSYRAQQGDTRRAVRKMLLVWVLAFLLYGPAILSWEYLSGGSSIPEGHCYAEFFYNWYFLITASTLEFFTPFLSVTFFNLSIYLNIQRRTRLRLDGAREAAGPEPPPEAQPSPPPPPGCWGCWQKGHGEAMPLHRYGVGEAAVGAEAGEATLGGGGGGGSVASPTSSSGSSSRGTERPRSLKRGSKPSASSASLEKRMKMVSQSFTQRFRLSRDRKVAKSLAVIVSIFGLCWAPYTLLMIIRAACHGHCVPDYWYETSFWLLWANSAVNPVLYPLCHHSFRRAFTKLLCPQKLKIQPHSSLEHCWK

Take `N#Cc1ccc(C(=O)Nc2ccc3c(c2)CCN(C2CCC2)CC3)cc1` [Example 2, 4-Cyano-N-(3-cyclobutyl-2,3,4,5-tetrahydro-1H-3-benzazepin-7-yl)benzamide]: the Kb was less than 0.316 nM.
The same measure for `O=C(Nc1ccc2c(c1)CCN(C1CCC1)CC2)c1ccc(-c2ccccn2)cc1` [Example 8, N-(3-Cyclobutyl-2,3,4,5-tetrahydro-1H-3-benzazepin-7-yl)-4-(2-pyridinyl)benzamide]: less than 0.316 nM; for `O=C(Nc1ccc2c(c1)CCN(C1CCC1)CC2)c1ccc(-c2cncnc2)cc1` [Example 29, N-(3-Cyclobutyl-2,3,4,5-tetrahydro-1H-3-benzazepin-7-yl)-4-(5-pyrimidinyl)benzamide]: less than 0.316 nM.
The same measure for `O=C(Nc1ccc2c(c1)CCN(C1CCC1)CC2)c1ccc(-n2cnnn2)cc1` [Example 33, N-(3-Cyclobutyl-2,3,4,5-tetrahydro-1H-3-benzazepin-7-yl)-4-(1H-tetrazol-1-yl)benzamide]: less than 0.316 nM; for `N#Cc1ccc(-c2ccc(C(=O)Nc3ccc4c(c3)CCN(C3CCC3)CC4)cc2)cn1` [Example 34, 4-(6-Cyano-3-pyridinyl)-N-(3-cyclobutyl-2,3,4,5-tetrahydro-1H-3-benzazepin-7-yl)benzamide]: less than 0.316 nM.
With `Cc1ccc(C(=O)Nc2ccc3c(c2)CCN(C2CCC2)CC3)cn1` [Example 37, N-(3-Cyclobutyl-2,3,4,5-tetrahydro-1H-3-benzazepin-7-yl)-6-methylnicotinamide], the Kb is less than 0.316 nM.
In the case of `O=C(Nc1ccc2c(c1)CCN(C1CCC1)CC2)c1ccc(N2CCOCC2)nc1` [Example 44, N-(3-Cyclobutyl-2,3,4,5-tetrahydro-1H-3-benzazepin-7-yl)-6-(4-morpholinyl)-3-pyridinecarboxamide] it was less than 0.316 nM; in that of `O=C(Nc1ccc2c(c1)CCN(C1CCC1)CC2)c1ccc(N2CCNC2=O)cc1` [Example 88, N-(3-Cyclobutyl-2,3,4,5-tetrahydro-1H-3-benzazepin-7-yl)-4-(2-oxo-1-imidazolidinyl)benzamide], less than 0.316 nM; in that of `N#Cc1ccc(-c2ccc(C(=O)Nc3ccc4c(c3)CCN(C3CCC3)CC4)cn2)cc1` [Example 98, 6-(4-Cyanophenyl)-N-(3-cyclobutyl-2,3,4,5-tetrahydro-1H-3-benzazepin-7-yl)-3-pyridinecarboxamide], less than 0.316 nM.
In the case of `O=C(Nc1ccc2c(c1)CCN(C1CCC1)CC2)c1cnc(N2CCCCC2)cn1` [Example 113, N-(3-Cyclobutyl-2,3,4,5-tetrahydro-1H-3-benzazepin-7-yl)-5-(1-piperidinyl)-2-pyrazinecarboxamide] it was less than 0.316 nM; in that of `O=C(Nc1ccc2c(c1)CCN(C1CCC1)CC2)N1CCCc2ccccc21` [Example 148, N-(3-Cyclobutyl-2,3,4,5-tetrahydro-1H-3-benzazepin-7-yl)-3,4-dihydro-1(2H)-quinolinecarboxamide], less than 0.316 nM.
